Data as given in patent US8809579B2, “Glucagon receptor antagonist compounds, compositions containing such compounds and methods of use” (Merck Sharp & Dohme Corp., priority 2009, dated 2014).

target: T1, human glucagon receptor (Homo sapiens, UniProt P47871); test: Glucagon Receptor Binding Assay; conditions: 125I-Glucagon binding to membranes of CHO cells expressing cloned human glucagon receptor; value for the more active diastereomer where both were prepared
T1 construct: expressed in transfected cells; cell membranes used
T1 sequence (P47871 26-477): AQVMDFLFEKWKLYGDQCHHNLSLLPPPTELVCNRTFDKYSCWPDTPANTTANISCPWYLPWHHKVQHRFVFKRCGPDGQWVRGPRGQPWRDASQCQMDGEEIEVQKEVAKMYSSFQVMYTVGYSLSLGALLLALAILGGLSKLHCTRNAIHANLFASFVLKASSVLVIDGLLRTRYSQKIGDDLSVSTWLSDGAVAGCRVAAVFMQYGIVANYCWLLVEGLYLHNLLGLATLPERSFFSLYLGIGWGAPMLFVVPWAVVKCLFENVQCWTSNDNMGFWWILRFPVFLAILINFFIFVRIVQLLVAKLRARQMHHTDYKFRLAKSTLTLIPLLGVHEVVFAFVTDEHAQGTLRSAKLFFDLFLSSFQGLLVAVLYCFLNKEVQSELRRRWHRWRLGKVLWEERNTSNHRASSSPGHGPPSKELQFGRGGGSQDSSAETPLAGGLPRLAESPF
Protocol: A stable CHO (Chinese hamster ovary) cell line expressing cloned human glucagon receptor was maintained as described (Chiechi, et. al. J Biol Chem 272, 7765-9 (1997); Cascieri, et. al. J Biol Chem 274, 8694-7 (1999)). To determine antagonistic binding affinity of compounds, 0.001-0.003 mg of cell membranes from these cells were pre-incubated with 0.100 mg WGA-coated PVT SPA beads (Amersham) for 20 minutes at room temperature in 25 μL of a buffer containing 50 mM Tris-HCl (pH 7.5), 5 mM MgCl2, 2 mM EDTA, 0.1% BSA and 3% glycerol in Costar 384 well plates with clear bottoms (#3706). Next, 25 μL of ^125I-Glucagon (New England Nuclear, Mass.) (1×10^−14 mol per well) and either 1 μL solutions of test compounds or 0.001 mM unlabeled glucagon or DMSO were added and mixed. After 4-12 hours incubation at room temperature, the radioactivity bound to the cell membranes was determined in a radioactive emission detection counter (Wallac-Microbeta). Data were analyzed using the Data Analyzer software program of Merck & Co., Inc. The IC50 values were calculated using non-linear regression analysis assuming single-site competition.

Row | Structure (SMILES) | IC50 [nM]
1 | CCC[C@H](c1ccc(C(=O)NCCC(=O)O)cc1)[C@@H](Oc1ccc(C#N)c2ccccc12)c1ccc(Cl)cc1 [Example 9] | 6.2
2 | CCC[C@H](c1ccc(C(=O)NCCC(=O)O)cc1)[C@@H](Oc1ccc(C)c(C#N)c1)c1ccc(Cl)cc1 [Example 16] | 16
3 | CCC[C@H](c1ccc(C(=O)NCCC(=O)O)cc1)[C@@H](OCc1ccc2ccccc2c1)c1ccc(Cl)cc1 [Example 73, N-(4-{(1R)-1-[(R)-(4-chlorophenyl)(2-naphthylmethoxy)methyl]butyl}benzoyl)-β-alanine] | 38
4 | CCC[C@H](c1ccc(C(=O)NCCC(=O)O)cc1)[C@@H](Oc1ccc(C(F)(F)F)c(C#N)c1)c1ccc(Cl)cc1 [Example 15] | 5.9
5 | CCC[C@H](c1ccc(C(=O)NCCC(=O)O)cc1)[C@@H](OCc1ccc(OC(F)(F)F)cc1)c1ccc(Cl)cc1 [Example 72, N-{4-[(1R)-1-((R)-(4-chlorophenyl){[4-(trifluoromethoxy)benzyl]oxy}methyl)butyl]benzoyl}-β-alanine] | 32
6 | CCC[C@H](c1ccc(C(=O)NCCC(=O)O)cc1)[C@@H](Oc1ccc(-c2cccn2C)cc1)c1ccc(Cl)cc1 [Example 47] | 9.2
7 | CCC[C@H](c1ccc(C(=O)NCCC(=O)O)cc1)[C@@H](OCc1ccc(-c2ccccc2)cc1)c1ccc(Cl)cc1 [Example 74, N-(4-{(1R)-1-[(R)-(biphenyl-4-ylmethoxy)(4-chlorophenyl)methyl]butyl}benzoyl)-β-alanine] | 20
8 | CCC[C@H](c1ccc(C(=O)NCCC(=O)O)cc1)[C@H](Oc1ccc(C(F)(F)F)cc1Cl)c1ccc(Cl)cc1 [Example 65] | 12
9 | CCC[C@H](c1ccc(C(=O)NCCC(=O)O)cc1)[C@@H](Oc1ccnc2c(C)cc(Cl)cc12)c1ccc(Cl)cc1 [Example 67, N-(4-{(1R)-1-[(R)-[(6-chloro-8-methylquinolin-4-yl)oxy](4-chlorophenyl)methyl]butyl}benzoyl)-β-alanine] | 6.6
10 | CCC[C@H](c1ccc(C(=O)NCCC(=O)O)cc1)[C@@H](Oc1ccnc2cc(C)ccc12)c1ccc(Cl)cc1 [Example 68, N-[4-((1R)-1-{(R)-(4-chlorophenyl)[(7-methylquinolin-4-yl)oxy]methyl}butyl)benzoyl]-β-alanine] | 7.2
11 | CCC[C@H](c1ccc(C(=O)NCCC(=O)O)cc1)[C@H](Oc1ccc(C(F)(F)F)cc1)c1ccc(Cl)cc1 [Example 62] | 7.9
12 | CCC[C@H](c1ccc(C(=O)NCCC(=O)O)cc1)[C@@H](Oc1ccc(Cl)c(Cl)c1)c1ccc(Cl)cc1 [Example 1, N-(4-{(1R)-1-[(R)-(4-chlorophenyl)(3,4-dichlorophenoxy)methyl]butyl}benzoyl)-β-alanine] | 16
13 | CCC[C@H](c1ccc(C(=O)NCCC(=O)O)cc1)[C@@H](Oc1cc(C#N)cc(-c2ccc(C(F)(F)F)cc2)c1)c1ccc(Cl)cc1 [Example 36] | 6.3
14 | CCC[C@H](c1ccc(C(=O)NCCC(=O)O)cc1)[C@@H](Oc1cc(C(F)(F)F)ccc1C#N)c1ccc(Cl)cc1 [Example 79] | 7.6
15 | CCC[C@H](c1ccc(C(=O)NCCC(=O)O)cc1)[C@@H](Oc1cc(C(C)(C)C)cc(C(C)(C)C)c1)c1ccc(Cl)cc1 [Example 5] | 11
16 | CCCC(c1ccc(C(=O)NCCC(=O)O)cc1)C(COc1ccc2cc(OC)ccc2c1)c1ccc(Cl)cc1 (racemic) [Example 86, N-[4-(1-{1-(4-chlorophenyl)-2-[(6-methoxy-2-naphthyl)oxy]ethyl}butyl)benzoyl]-β-alanine] | 16
17 | CCC[C@H](c1ccc(C(=O)NCCC(=O)O)cc1)[C@@H](Oc1ccc(C#N)c(Cl)c1)c1ccc(Cl)cc1 [Example 18] | 25
18 | N#Cc1cc(Cl)cc(O[C@@H](c2ccc(Cl)cc2)[C@H](CCC(F)(F)F)c2ccc(C(=O)NCCC(=O)O)cc2)c1 [Example 75, N-(4-{(1R)-1-[(R)-(3-chloro-5-cyanophenoxy)(4-chlorophenyl)methyl]-4,4,4-trifluorobutyl}benzoyl)-β-alanine] | 18

The remaining lines, values ahead:

Row | IC50 [nM] | Structure (SMILES)
19 | 5.5 | CCC[C@H](c1ccc(C(=O)NCCC(=O)O)cc1)[C@@H](Oc1ccnc2cc(C#N)ccc12)c1ccc(Cl)cc1 [Example 71, N-[4-((1R)-1-{(R)-(4-chlorophenyl)[(7-cyanoquinolin-4-yl)oxy]methyl}butyl)benzoyl]-β-alanine]
20 | 4.8 | CCC[C@H](c1ccc(C(=O)NCCC(=O)O)cc1)[C@@H](Oc1cc(C#N)cc(C(F)(F)F)c1)c1ccc(Cl)cc1 [Example 76, N-[4-((1R)-1-{(R)-(4-chlorophenyl)[3-cyano-5-(trifluoromethyl)phenoxy]methyl}butyl)benzoyl]-β-alanine]
21 | 4.5 | CCC[C@H](c1ccc(C(=O)NCCC(=O)O)cc1)[C@@H](Oc1ccnc2cc(Cl)ccc12)c1ccc(Cl)cc1 [Example 69, N-[4-((1R)-1-{(R)-(4-chlorophenyl)[(7-chloroquinolin-4-yl)oxy]methyl}butyl)benzoyl]-β-alanine]
22 | 3.6 | CCC[C@H](c1ccc(C(=O)NCCC(=O)O)cc1)[C@@H](Oc1ccc(C(F)(F)F)cc1C#N)c1ccc(Cl)cc1 [Example 80]
23 | 2.5 | CCC[C@H](c1ccc(C(=O)NCCC(=O)O)cc1)[C@@H](Oc1cc(C#N)cc(C(F)(F)F)c1)c1ccc(OC(F)(F)F)cc1 [Example 77, N-[4-((1R)-1-{(R)-(4-trifluoromethoxyphenyl)[3-cyano-5-(trifluoromethyl)phenoxy]methyl}butyl)benzoyl]-β-alanine]
24 | 2.1 | CCC[C@H](c1ccc(C(=O)NCCC(=O)O)cc1)[C@@H](Oc1cc(C(F)(F)F)nc2ccccc12)c1ccc(Cl)cc1 [Example 70, N-(4-{(1R)-1-[(R)-[(2-trifluoromethylquinolin-4-yl)oxy](4-chlorophenyl)methyl]butyl}benzoyl)-β-alanine]
25 | 1.4 | CCC[C@H](c1ccc(C(=O)NCCC(=O)O)cc1)[C@@H](Oc1cc(C#N)c(Cl)c(C(F)(F)F)c1)c1ccc(Cl)cc1 [Example 78, N-(4-{(1R)-1-[(R)-[4-chloro-3-cyano-5-(trifluoromethyl)phenoxy](4-chlorophenyl)methyl]butyl}benzoyl)-β-alanine]
26 | 1.1 | CCC[C@H](c1ccc(C(=O)NCCC(=O)O)cc1)[C@@H](Oc1cc(Cl)c(Cl)c(C#N)c1)c1ccc(Cl)cc1 [Example 85]
27 | 0.3 | CCC[C@H](c1ccc(C(=O)NCCC(=O)O)cc1)[C@@H](Oc1ccc(-c2ccc(C(F)(F)F)cc2)cc1C#N)c1ccc(Cl)cc1 [Example 59]

same assay, conditions: comparison of major and minor racemic diastereomers

Row | more potent glucagon receptor antagonist of the two diastereomers | Structure (SMILES)
28 | more potent glucagon receptor antagonist | CCCC(c1ccc(C(=O)NCCC(=O)O)cc1)C(COc1ccc2cc(OC)ccc2c1)c1ccc(Cl)cc1 (stereo not drawn) [86 major diastereomer]
